The values below come from US20260355199A1, “COMPOSITIONS AND METHODS FOR TREATING OR PREVENTING NONALCOHOLIC STEATOHEPATITIS (NASH), ANOREXIA, DEPRESSION, ENDOMETRIOSIS, AND OTHER DISEASES OR DISORDERS” (priority 2022, published 2026).

“Also recorded” adds a separate entry of the source.

For data set [1], the system named is murine model of endometriosis. In words: Surgically induced murine model of endometriosis. Format: in vivo, mouse. The protocol: Female mice were randomly divided into three groups (sham, endometriosis treated with vehicle, and endometriosis treated with Bobcat) and subjected to surgery (week 1) to induce endometriosis or sham (FIG. 22A). The first once-a-week intraperitoneal (i.p.) injection of Bobcat339 (or vehicle) at a dose of 2.5 mg/kg was performed on week 3, followed by euthanasia and blood and tissue collection at week 9.
Given that Bobcat339 degrades TET3 inducing apoptosis (FIG. 26) and that myeloid-specific Tet3 ablation attenuates endometriosis (FIG. 28A through FIG. 28C), studies were performed to test whether Bobcat339 would elicit therapeutic effects on endometriosis. Thus, female mice were randomly divided into three groups (sham, endometriosis treated with vehicle, and endometriosis treated with Bobcat339) and subjected to surgery (week 0) to induce endometriosis or sham (FIG. 28D). The first once-a-week intraperitoneal (i.p.) injection of Bobcat339 (or vehicle) at a dose of 2.5 mg/kg body weight was performed on week 2, followed by euthanasia and blood and tissue collection on week 8. The dose of 2.5 mg/kg was chosen based on the previous studies showing no discernible liver toxicity in mice (Lv et al., 2023, Proc Natl Acad Sci USA, In press).
As Bobcat339 destabilized TET3, thus promoting macrophage apoptosis, additional studies tested whether Bobcat339 inhibits endometriosis (FIG. 25). Female mice were randomly divided into three groups (sham, endometriosis treated with vehicle, and endometriosis treated with Bobcat339) and subjected to surgery (week 0) to induce endometriosis or sham (FIG. 26). The first once-a-week intraperitoneal (i.p.) injection of Bobcat339 (or vehicle) at a dose of 3 mg/kg body weight was performed on week 2, followed by euthanasia and sample collection on week 8.
Bobcat339 powder was freshly dissolved in DMSO at a concentration of 50 mg/mL and filtered through a 0.22 micron filter. It was further diluted with 1×PBS to a final concentration of 0.5 mg/mL before injections. Mice were injected intraperitoneally with Bobcat339 at 2.5 mg/kg body weight.
Briefly, uterus horns were removed from wild-type female donor mice, opened longitudinally and cut into fragments of 3 mm. Two uterine segments were sutured to each right and left parietal peritoneum of recipient mice (6-7 weeks old) with absorbable suture. Sham surgeries were performed for sham group, using the same surgical procedure without the introduction of extraneous uterine tissue. The experimental model was allowed to develop for more than 4 weeks. Development of the model was confirmed by opening the abdominal cavity and measuring the size of endometriotic lesions both macroscopically and histologically.

In data set [2] the test system is high fat diet (HFD)-induced diabetic mice. Nature of the data set: Feeding of HFD-induced diabetic mice. Format: in vivo, mouse. Particulars: drinking water, two weeks. The source says:
It has previously been shown that TET3 expression is aberrantly elevated in the livers of humans and mice with type 2 diabetes and that liver-specific, siRNA-mediated TET3 knockdown improves glucose homeostasis both in dietary and genetic mouse models of diabetes (Li D. et al., 2020, Nature Communications, 11:342). Bobcat339 (4-Amino-1-[1,1′-biphenyl]-3-yl-5-chloro-2(1H)-pyrimidinone) is a synthetic cytosine derivative capable of binding competitively with 5mC to the active sites of [COMPOUND LEFT OUT] and inhibits their enzymatic activity in cultured neuronal cells (Chua G. N. L. et al., 2019, ACS Medicinal Chemistry Letters, 10:180-185). Although not bound by any particular theory, it was hypothesized that Bobcat339 has an anti-diabetic effect owing to its ability to inhibit [COMPOUND LEFT OUT]. Thus, the present studies employed high fat diet (HFD)-induced diabetic mice that were treated with Bobcat339 in drinking water for two weeks. […] Thus, nondiabetic mice fed on regular chow were treated with Bobcat339 in drinking water. Four days later, ARCs were isolated from ad libitum-fed mice and analyzed. […] In light of these observations, additional studies began to explore [COMPOUND LEFT OUT] in AgRP neurons for a potential role in the control of feeding and energy metabolism.

For the next data set, the system named is Agrp promoter. Nature of the data set: hMeDIP-qPCR (5hmC) at the Agrp promoter in mouse ARC. Format: in vivo. The conditions noted are these: leptin- vs. saline-treated. The protocol:
To assess leptin effects on suppression of hunger-induced appetite, female Cas9+ mice injected with AAV or AAV-sgTet3 bilaterally into the ARC were fasted overnight for 22 h. On the second day, mouse leptin (L3772-1MG, Sigma Aldrich) was administrated at 5 mg/kg intraperitoneally at 10:00 and pre-weighed food was placed in the cage and monitored for the following 24 h. For ChIP studies, Cas9+ mice injected with AAV or AAVsgTet3 bilaterally into the ARC were fasted overnight for 22 h. On the second day, saline or leptin (5 mg/kg) was administrated intraperitoneally at 10:00. Two hours later, ARCs were isolated for ChIP-qPCR analysis. To examine leptin-induced protein-protein interactions, Cas9+ mice were fasted overnight for 22 h. […]
The experiments were carried out using the EpiQuik hMeDIP Kit (P-1038-48, Epigentek) according to the manufacturer's instructions. […] Sheared DNA fragments (ranged in size from 200-600 bps as assessed by agarose gel electrophoresis) were immunoprecipitated using the 5hmC rabbit polyclonal antibody from the kit. qPCR was performed in a 25 μl reaction containing 2.5 μl of the eluted DNA using iTAC SYBGreen in a Bio-Rad iCycler. The relative enrichments (after normalization against control IgG) of the indicated DNA regions were calculated using the Percent Input Method according to the manufacturer's instructions.

As for `Nc1nc(=O)n(-c2cccc(-c3ccccc3)c2)cc1Cl` [Bobcat339, 4-Amino-1-[1,1′-biphenyl]-3-yl-5-chloro-2(1H)-pyrimidinone], in data set [1] (2.5 mg/kg i.p. once a week), the “TET3-expressing (CD163 double positive) macrophages in lesions” value is on record as “depletion of TET3/CD163-double positive cells; also recorded: depletion of TET3-expressing macrophages”, the body weight entry is “no statistically significant differences were observed in body weight; also recorded: nor was there a significant difference in body weight”, the endometriosis lesion volume entry is recorded as “significantly reduced the lesion volume; also recorded: a significant decrease in lesion volume; also recorded: a significantly decrease in lesion volume” and the “food intake / appetite in endometriosis mice” value is given as “the decrease was not observed; also recorded: improved appetite”. In data set [1] (3 mg/kg i.p. once a week), the “IL-1b and IL-6 expression in CD163+ macrophage-enriched areas” value was “a dramatic reduction in the expression of IL-1b and IL-6”; the body weight result is on record as “nor was there a significant difference in body weight”; the endometriosis lesion volume entry is “significantly reduced the lesion volume”; the “number of TET3-overexpressing CD163+ macrophages” value is “a marked decrease in the number of TET3-overexpressing CD163^+ macrophages”. Further, in data set [2], the feeding result was “became hyperphagic”.
“leptin: adipose hormone; mouse leptin L3772-1MG or human leptin L4146-1MG, Sigma Aldrich”: in the data set on Agrp promoter, the “5hmC in the Agrp promoter” value is listed as “an increase in 5hmC in the Agrp promoter”.
